Measured values as given in patent US9023789B2, “Amylin analogs and pharmaceutical compositions thereof” (Novo Nordisk A/S, priority 2012, dated 2015).
pEC50, pIC50: −log10 of the molar value. In brackets after ≈: the same amount, converted by molar mass. Like-named read-outs stand apart in the source and are kept apart here. Numbered stars: 1 amine (or outer) side, 2 acyl side, 3 side chain; on linkers, the order of the positions; unused ones are H or OH. Bridge positions count the residues as written; N and C are the ends. Side chains are listed from the residue outwards. Peptide text beside a SMILES is read from it. * marks the point of attachment. C20 diacid = O=C(O)CCCCCCCCCCCCCCCCCCC(=O)*; γGlu = O=C(O)[C@H](CCC(=O)[*:2])N[*:1]

What was measured:
[1] = ASSAY (IV) determination of solubility; format: physicochemical
Outline: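 Polypeptide in water at […] mixed 1:1 with 100 mM buffers of pH 3.0-8.0 (glycylglycine pH 3-5, bistrispropane pH 6-8). Held 18 h at room temperature, then centrifuged; concentration remaining in solution measured by UPLC.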

[2] = target: T1, rat amylin receptor (rat calcitonin receptor + rat RAMP 3) (Rattus norvegicus, UniProt P32214+Q9JJ73); assay: ASSAY (VI) binding to the rat amylin receptor; settings: for pIC50: binding to rat amylin receptor, read-out: rAmylin-R bind IC50
T1 construct: expressed in transfected cells; host or cells: BHK tk'ts 13 (transient, FuGENE 6), membranes
T1 sequence (P32214 25-479 isoform P32214-2 limits assumed): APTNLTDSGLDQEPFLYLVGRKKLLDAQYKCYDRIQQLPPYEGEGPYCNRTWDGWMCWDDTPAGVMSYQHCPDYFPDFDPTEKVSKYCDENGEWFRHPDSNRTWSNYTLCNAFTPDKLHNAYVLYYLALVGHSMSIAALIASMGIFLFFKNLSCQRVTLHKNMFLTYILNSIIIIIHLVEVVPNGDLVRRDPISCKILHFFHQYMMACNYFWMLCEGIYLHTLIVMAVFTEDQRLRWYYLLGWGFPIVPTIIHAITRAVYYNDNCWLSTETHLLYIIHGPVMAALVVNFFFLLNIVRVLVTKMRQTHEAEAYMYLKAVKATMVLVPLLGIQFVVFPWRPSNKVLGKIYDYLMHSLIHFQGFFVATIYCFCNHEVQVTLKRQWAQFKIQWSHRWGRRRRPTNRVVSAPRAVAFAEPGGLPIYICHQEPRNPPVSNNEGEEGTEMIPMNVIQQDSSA
T1 sequence (Q9JJ73 23-147 partner): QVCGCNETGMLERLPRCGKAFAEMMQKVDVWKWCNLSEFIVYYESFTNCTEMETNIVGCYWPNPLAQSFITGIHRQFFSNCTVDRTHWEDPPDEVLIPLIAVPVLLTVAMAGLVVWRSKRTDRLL
Outline: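 Binding to the rat amylin receptor was determined with membrane preparations. The receptor was expressed by transiently transfecting BHK tk′ts 13 cells with rat calcitonin receptor, using FuGENE® 6 (Roche) according to the manufacturer's recommendations. Roughly 48 hours later the cells were harvested and their membranes isolated.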

rat calcitonin receptor = target: T2, rat calcitonin receptor (Rattus norvegicus, UniProt P32214); assay: ASSAY (VIII) binding to the rat calcitonin receptor; settings: Table 7, read-out: rCTR bind IC50
T2 construct: expressed in transfected cells; host or cells: BHK tk'ts 13 (transient, FuGENE 6), membranes
T2 sequence (P32214 25-479 isoform P32214-2 limits assumed): T1 sequence (P32214 25-479 isoform P32214-2 limits assumed)
Outline: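 Membranes were prepared from BHK tk′ts 13 cells transiently transfected with rat calcitonin receptor. Cells were grown in DMEM with 10% FBS and harvested approximately 48 hours after transfection.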

[3] = target: T3, human amylin receptor (membranes from Amylin 3(a)/CRE-luc cells) (Homo sapiens, UniProt O60896+P30988); assay: ASSAY (V) binding to the human amylin receptor (SPA, 125I-rat amylin);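 note: competition binding of cell membranes (35 ng/µL) mixed with SPA beads in 384-well plates at 40 µL total volume, read by scintillation counting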
T3 construct: expressed in transfected cells
T3 sequence (P30988 25-474): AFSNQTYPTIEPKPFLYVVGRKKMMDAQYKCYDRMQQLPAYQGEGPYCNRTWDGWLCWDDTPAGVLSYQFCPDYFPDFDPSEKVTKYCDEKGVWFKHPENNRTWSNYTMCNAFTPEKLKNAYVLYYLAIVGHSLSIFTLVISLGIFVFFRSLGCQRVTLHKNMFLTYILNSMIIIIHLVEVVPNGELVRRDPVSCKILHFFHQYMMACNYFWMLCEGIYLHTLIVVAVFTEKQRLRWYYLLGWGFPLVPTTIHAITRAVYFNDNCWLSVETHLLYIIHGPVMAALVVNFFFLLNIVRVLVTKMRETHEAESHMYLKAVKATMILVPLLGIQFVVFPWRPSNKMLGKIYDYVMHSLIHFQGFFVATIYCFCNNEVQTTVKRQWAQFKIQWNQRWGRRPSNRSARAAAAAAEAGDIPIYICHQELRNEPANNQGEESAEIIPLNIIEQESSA
T3 sequence (O60896 24-148 partner): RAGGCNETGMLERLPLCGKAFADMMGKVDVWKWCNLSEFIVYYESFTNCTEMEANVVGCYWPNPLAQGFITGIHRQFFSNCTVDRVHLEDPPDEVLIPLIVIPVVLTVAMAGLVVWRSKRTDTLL

[4] = target: T4, human amylin 3(a) receptor (human calcitonin receptor + RAMP-3) in BHK570 cells (Homo sapiens, UniProt O60896+P30988); assay: ASSAY (II)a functional assay, human amylin receptor (CRE luciferase); format: cell-based
T4 construct: expressed in transfected cells
Outline: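 BHK cells stably carrying a CRE-luciferase reporter plus calcitonin receptor, or calcitonin receptor with RAMP-3 for the amylin 3(a) receptor, were seeded and kept overnight at 37° C. Compounds were added in assay medium with 10% FBS and 10 mM Hepes, pH 7.4, for 3 hours at 37° C, then luminescence was counted.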

[5] = bistrispropane buffer, pH 6.5, read-out: Solubility pH 6.5 Concentration
[6] = bistrispropane buffer, pH 7.5, read-out: Solubility pH 7.5 Concentration
[7] = bistrispropane buffer, pH 6.0, read-out: Solubility pH 6.0 Concentration
[8] = bistrispropane buffer, pH 7.0, read-out: Solubility pH 7.0 Concentration
[9] = bistrispropane buffer, pH 8.0, read-out: Solubility pH 8.0 Concentration
[10] = glycylglycine buffer, pH 3.0, read-out: Solubility pH 3.0 Concentration
[11] = glycylglycine buffer, pH 4.0, read-out: Solubility pH 4.0 Concentration
[12] = glycylglycine buffer, pH 5.0, read-out: Solubility pH 5.0 Concentration
[13] = Table 7, rat binding selectivity, rCTR IC50 / rAmylin-R IC50
[14] = Table 7a (preferred compounds), rat binding selectivity, rCTR IC50 / rAmylin-R IC50
[15] = ratio of rCTR bind IC50 to rAmylin-R bind IC50
[16] = Table 5, selectivity, hCTR bind IC50 / hAmylin-R bind IC50
[17] = Table 5a, selectivity, hCTR bind IC50 / hAmylin-R bind IC50
[18] = Table 5b, selectivity, hCTR bind IC50 / hAmylin-R bind IC50
[19] = Table 5c, selectivity, hCTR bind IC50 / hAmylin-R bind IC50
[20] = Table 7, human binding selectivity, included for comparison
[21] = Table 7a (preferred compounds), human binding selectivity, included for comparison
[22] = ratio of human calcitonin receptor binding IC50 to human amylin receptor binding IC50
[23] = hCTR funct. EC50 divided by hAmylin-R funct. EC50
[24] = hCTR funct. EC50 over hAmylin-R funct. EC50
[25] = human functional selectivity: hCTR funct. EC50 / hAmylin-R funct. EC50

solubility at 18 h [1, 5] [µM] | solubility at 18 h [1, 6] [µM] | solubility at 18 h [1, 7] [µM] | solubility at 18 h [1, 8] [µM] | solubility at 18 h [1, 9] [µM] | solubility at 18 h [1, 10] [µM] | solubility at 18 h [1, 11] [µM] | solubility at 18 h [1, 12] [µM] | pIC50 ([2]; Table 7) | Ratio rCT/rAmylin binding [2, 13] | Ratio rCT/rAmylin binding [2, 14] | Ratio rCT/rAmylin binding [2, 15] | pIC50 (rat calcitonin receptor) | Ratio hCT/hAmylin binding [3, 16] | Ratio hCT/hAmylin binding [3, 17] | Ratio hCT/hAmylin binding [3, 18] | Ratio hCT/hAmylin binding [3, 19] | Ratio hCT/hAmylin binding [3, 20] | Ratio hCT/hAmylin binding [3, 21] | Ratio hCT/hAmylin binding [3, 22] | Compound | also measured
≥ 200 | 147 (≈ 651 µg/mL) | ≥ 200 | ≥ 200 | 59 (≈ 261 µg/mL) | ≥ 200 | ≥ 200 | ≥ 200 | 8.83 | 136.8 | 136.8 | 136.8 | 6.69 | 118.4 | 118.4 | 118.4 | 118.4 | 118.4 | 118.4 | 118.4 | CC[C@H](C)[C@H](NC(=O)[C@H](C)NC(=O)CNC(=O)[C@H](Cc1ccccc1)NC(=O)[C@H](CC(N)=O)NC(=O)[C@@H]1CCCN1C(=O)[C@H](CO)NC(=O)[C@H](CO)NC(=O)[C@H](Cc1c[nH]cn1)NC(=O)[C@H](CCCNC(=N)N)NC(=O)[C@H](CC(C)C)NC(=O)[C@H](Cc1ccccc1)NC(=O)[C@H](CC(N)=O)NC(=O)[C@H](C)NC(=O)[C@H](CC(C)C)NC(=O)[C@H](CCCNC(=N)N)NC(=O)[C@H](CCC(N)=O)NC(=O)[C@@H](NC(=O)[C@H](C)NC(=O)[C@@H]1CSSC[C@H](NC(=O)[C@@H](N)CCCCNC(=O)CC[C@H](NC(=O)CCCCCCCCCCCCCCCCCCC(=O)O)C(=O)O)C(=O)N[C@@H](CC(N)=O)C(=O)N[C@@H]([C@@H](C)O)C(=O)N[C@@H](C)C(=O)N[C@@H]([C@@H](C)O)C(=O)N1)[C@@H](C)O)C(=O)N1CCC[C@H]1C(=O)N[C@@H](CO)C(=O)N[C@@H](CO)C(=O)N[C@H](C(=O)N[C@@H](CC(N)=O)C(=O)N[C@H](C(=O)NCC(=O)N[C@@H](Cc1c[nH]cn1)C(=O)N[C@@H](CC(N)=O)C(=O)N[C@H](C(=O)N[C@@H](Cc1ccc(O)cc1)C(N)=O)[C@@H](C)O)C(C)C)[C@@H](C)O [Example 77] | Solubility pH 6.5 Concentration ([1]; pH 6.5 (Table 9a)): ≧200 μM; Solubility pH 7.0 Concentration ([1]; pH 7.0 (Table 9a)): ≧200 μM; Ratio hCT/hAmylin funct. [4, 23]: 37.3; Ratio hCT/hAmylin funct. [4, 24]: 37.3; Ratio hCT/hAmylin funct. [4, 25]: 37.3
≥ 200 | ≥ 200 | ≥ 200 | ≥ 200 | 189 (≈ 829 µg/mL) | ≥ 200 | ≥ 200 | ≥ 200 | 9.38 | 42.8 | 42.8 | 42.8 | 7.75 | 63.0 | 63.0 | 63.0 | 63.0 | 63.0 | 63.0 | 63.0 | CC[C@H](C)[C@H](NC(=O)[C@H](C)NC(=O)CNC(=O)[C@H](Cc1ccccc1)NC(=O)[C@H](CC(N)=O)NC(=O)[C@@H]1CCCN1C(=O)[C@H](CO)NC(=O)[C@H](CO)NC(=O)[C@H](Cc1c[nH]cn1)NC(=O)[C@H](CCCNC(=N)N)NC(=O)[C@H](CC(C)C)NC(=O)[C@H](Cc1ccccc1)NC(=O)[C@H](Cc1c[nH]cn1)NC(=O)[C@H](C)NC(=O)[C@H](CC(C)C)NC(=O)[C@H](CCCNC(=N)N)NC(=O)[C@H](CCC(N)=O)NC(=O)[C@@H](NC(=O)[C@H](C)NC(=O)[C@@H]1CSSC[C@H](NC(=O)[C@@H](N)CCCCNC(=O)CC[C@H](NC(=O)CCCCCCCCCCCCCCCCCCC(=O)O)C(=O)O)C(=O)N[C@@H](CC(N)=O)C(=O)N[C@@H]([C@@H](C)O)C(=O)N[C@@H](C)C(=O)N[C@@H]([C@@H](C)O)C(=O)N1)[C@@H](C)O)C(=O)N1CCC[C@H]1C(=O)N[C@@H](CO)C(=O)N[C@@H](CO)C(=O)N[C@H](C(=O)N1CCC[C@H]1C(=O)N[C@H](C(=O)NCC(=O)N[C@@H](CO)C(=O)N[C@@H](CC(N)=O)C(=O)N[C@H](C(=O)N[C@@H](Cc1ccc(O)cc1)C(N)=O)[C@@H](C)O)C(C)C)[C@@H](C)O [Example 62] (H-K([γGlu-C20 diacid])CNTATCATQRLAHFLRHSSPNFGAIPSSTPVGSNTY-NH2; disulfide 2-7; N-terminus assumed) | pIC50 ([3]; Table 4, read-out: hAmylin-R bind IC50): 10.01; Ratio hCT/hAmylin funct. [4, 23]: 12.3; Ratio hCT/hAmylin funct. [4, 24]: 12.3; pEC50 ([4]; human amylin receptor functional potency, assay (II), read-out: hAmylin-R funct. EC50): 10.36; Ratio hCT/hAmylin funct. [4, 25]: 12.3
